Source: PubChem BioAssay (NCI)
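96-well plates; 48 h exposure; 5 concentrations. Endpoints by linear interpolation between flanking doses. Not reached: highest tested concentration assigned. GI50 = concentration required for 50% inhibition of growth. TGI: concentration producing complete growth inhibition.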

Key:
Assay in all cases: NCI-60 cell line screen, 48 h
KM12 colon = tested on: KM12 colon
SK-MEL-2 melanoma = tested on: SK-MEL-2 melanoma
HCC-2998 colon = tested on: HCC-2998 colon
UO-31 renal = tested on: UO-31 renal
OVCAR-5 ovarian = tested on: OVCAR-5 ovarian
SNB-75 CNS = tested on: SNB-75 CNS
NCI-H226 lung = tested on: NCI-H226 lung
OVCAR-3 ovarian = tested on: OVCAR-3 ovarian
U251 CNS = tested on: U251 CNS
RXF 393 renal = tested on: RXF 393 renal

Row | SMILES | TGI (KM12 colon) [µM] | TGI (SK-MEL-2 melanoma) [µM] | TGI (HCC-2998 colon) [µM] | TGI (UO-31 renal) [µM] | TGI (OVCAR-5 ovarian) [µM] | TGI (SNB-75 CNS) [µM] | TGI (NCI-H226 lung) [µM] | TGI (OVCAR-3 ovarian) [µM] | TGI (U251 CNS) [µM] | GI50 (KM12 colon) [µM] | GI50 (SK-MEL-2 melanoma) [µM] | GI50 (HCC-2998 colon) [µM] | GI50 (UO-31 renal) [µM] | GI50 (OVCAR-5 ovarian) [µM] | GI50 (SNB-75 CNS) [µM] | GI50 (NCI-H226 lung) [µM] | GI50 (U251 CNS) [µM] | GI50 (RXF 393 renal) [µM] | TGI (RXF 393 renal) [µM] | GI50 (OVCAR-3 ovarian) [µM]
1 | COc1ccc(CCN=C2CCC(C(=O)NCCc3ccc(OC)c(OC)c3)N2)cc1OC (centres undefined) | > 100 | > 100 | > 100 | > 100 | > 100 | > 100 | > 100 | > 100 | > 100 | – | – | – | – | – | – | – | – | – | – | –
2 | CC1CC2(C)CC(=O)C1C1C(=O)N(CCN3CCCCC3)C(=O)C12 (centres undefined) | > 100 | > 100 | > 100 | > 100 | > 100 | > 100 | > 100 | – | > 100 | > 100 | > 100 | > 100 | > 100 | > 100 | > 100 | > 100 | > 100 | – | – | –
3 | CC1=C(C(=O)Nc2ccc(Cl)c(Cl)c2)C(c2ccccc2O)NC(=O)N1 (centres undefined) | > 50 | > 50 | – | > 50 | > 50 | > 50 | > 50 | > 50 | > 50 | 16.9 | > 50 | – | > 50 | > 50 | 25.9 | 21.3 | > 50 | > 50 | > 50 | 19.1
4 | COc1cccc(C2NC(=S)NC(C)=C2C(=O)Nc2ccc(Cl)c(Cl)c2)c1 (centres undefined) | 20.5 | > 50 | – | 17.9 | > 50 | > 50 | 30.7 | 18.2 | > 50 | 10.1 | 15.7 | – | 9.1 | 28.7 | 34.8 | 12.1 | > 50 | 9.14 | 22.3 | 8.88
5 | CN1CCc2c1nc(-c1ccc([N+](=O)[O-])cc1)c1c2N(C)CC1 | > 100 | > 100 | > 100 | > 100 | > 100 | > 100 | – | > 100 | > 100 | – | – | – | – | – | – | – | – | – | > 100 | –
6 | CC1OC(OC2CCC3(C=O)C4CCC5(C)C(C6=CC(=O)OC6)CCC5(O)C4CCC3(O)C2)C(O)C(O)C1O (centres undefined) | 0.000298 | 0.000326 | – | – | – | 0.36 | 0.000111 | – | 0.000156 | – | – | – | – | 0.0112 | – | – | – | – | 8.12e-05 | –
7 | COC(OC)c1cc2c(cc1C(=O)[C@@]13CCC[C@@H]1NC(=O)O3)OCO2 | > 100 | > 100 | – | > 100 | > 100 | > 100 | > 100 | > 100 | > 100 | – | – | – | – | – | – | – | – | – | > 100 | –
8 | N=C1C=C(N)C(=O)c2[nH]c(=O)ccc21 | 3.21 | 4.48 | 35.8 | – | 4.78 | – | 6.04 | 2.96 | 3.6 | – | – | – | – | – | – | – | – | – | 3.29 | –
